Test [1] addresses T1, human HSD17β13 (stable HEK293T cell line overexpressing human HSD17β13) (Homo sapiens, UniProt Q7Z5P4).
T1 construct: expressed in transfected cells
T1 sequence (Q7Z5P4 20-300): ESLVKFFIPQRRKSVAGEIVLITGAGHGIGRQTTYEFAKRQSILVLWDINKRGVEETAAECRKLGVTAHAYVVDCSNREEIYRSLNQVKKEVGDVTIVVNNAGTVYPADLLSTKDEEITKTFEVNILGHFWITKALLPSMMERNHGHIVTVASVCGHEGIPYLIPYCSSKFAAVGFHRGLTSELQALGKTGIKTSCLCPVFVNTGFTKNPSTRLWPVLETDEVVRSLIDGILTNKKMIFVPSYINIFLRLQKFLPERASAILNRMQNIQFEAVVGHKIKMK
Kind of test: HSD17β13 inhibitor cell-based screening assay (conversion of estradiol-d2 to estrone-d2 by RF-MS). To be noted: conversion of estradiol-d2 to estrone-d2 after 24 hours. A digest of the protocol:
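Cellular IC50 is based on 24-h conversion of estradiol-d2 (5 μM final) to estrone-d2, measured by RF-MS in acetonitrile-precipitated supernatants. Assay uses human HSD17β13-overexpressing HEK293T cells (7.5E3/well, 1% charcoal/dextran FBS MEM), with compounds dosed as a 9-point 1:3 series to 10 μM final. ATPlite luminescence on overexpressing and parent lines measured viability.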

Test [2] deals with T2, Recombinant human 17β-HSD13 (Homo sapiens, UniProt Q7Z5P4).
T2 construct: host or cells: Sf9 insect cells
T2 sequence (Q7Z5P4 20-300): T1 sequence (Q7Z5P4 20-300)
Description: 17β-HSD13 rapid-fire mass spectrometry assay (RF/MS assay). To be noted: inhibition of 17β-HSD13, RF/MS assay; HSD17B13 80 nM, LTB4 10 μM, NAD+ 0.5 mM, RT 3 h. The class given is biochemical. The text has this:
17(3-HSD13 rapid-fire mass spectrometry assay (RF/MS assay). Recombinant human 17β-HSD13 was expressed and purified from sf9 cells at Charles River Labs (Saffron Walden, UK). Leukotriene B4 (Catalog #71160-24-2) and 12-oxoleukotriene B4 (Catalog #20140) were purchased from Cayman Chemicals (Ann Arbor, MI). NAD+ (Catalog #N8285), BSA (Catalog #A7030), DMSO (Catalog #D2650), and Tween-20 (Catalog #11332465001) were purchased from Sigma (St. Louis, MO). Formic acid (Catalog #28905) was from ThermoFisher Scientific and 384 deep well PP microplates (Catalog #784261) were from Greiner Bio-One. In a typical IC50 assay performed in a 384w PP microplate, test compounds (0-100 μM) were incubated with HSD17B13 (80 nM), LTB4 (10 μM), and NAD^+ (0.5 mM) in 10 μL assay buffer (20 mM Tris (pH 7.5), BSA (0.005%), and Tween-20 (0.01%)) at RT for 3 h. The assays were quenched by adding 20 μL of 0.15% aqueous formic acid and the plates were frozen at −80° C. RF/MS analysis was performed at PureHoney Technologies (Billerica, MA) on a RapidFire RF300 system (Agilent Technologies, Inc.) coupled to an API 4000 triple quadrupole mass spectrometer (Sciex) equipped with Agilent RapidFire cartridge type A (C4). The mobile phase was 0.09% formic acid and 0.01% trifluoracetic acid in water (Buffer A) and 0.09% formic acid and 0.01% trifluoracetic acid in 80% aqueous acetonitrile (Buffer B). The RapidFire method conditions were the following: 250 ms aspirate, 3000 ms load/desalt, 4000 ms elute, and 500 ms re-equilibrate. RF-MS/MS was performed in negative polarity (−4500 V), the source temperature was 650° C., and gas 1 and gas 2 settings for nitrogen were set to 50. The curtain gas and collision gas were also nitrogen and were set to 20 and 12, respectively. Leukotriene B4 (335.3) and 12-oxoLeukotriene B4 (333.3) SRM transitions were optimized with Discovery Quant software and extracted ion counts for these analytes were determined.
Data Analysis. 17β-HSD13 enzyme activity was measured as percent conversion of extracted ion counts and normalized to high and low controls to determine percent residual activity at various concentrations of test compounds. Data was fitted to normalized activity (variable slope) versus concentration fit in GraphPad Prism 7 to determine IC50. All experiments were run in duplicates.
By using the above method, the inhibition of 17β-HSD13 was evaluated for the compounds of Formula (I). IC50 ranges are as follows: A is <0.1 μM; B is 0.1 μM-1.0 μM; C is 1.0 μM-10 μm; and D is >10 μM.

The structures appear in SMILES notation.

Usually IC50 stands for the concentration that inhibits the measured activity by half. Consider `O=c1c2c(nc(-c3ccc(F)cc3C3CC3)n1Cc1cc(C(F)(F)F)no1)sc1c(O)c(Cl)ccc12` [Example 40, 7-chloro-2-(2-cyclopropyl-4-fluorophenyl)-8-hydroxy-3-((3-(trifluoromethyl)isoxazol-5-yl)methyl)benzo[4,5]thieno[2,3-d]pyrimidin-4(3H)-one], for which the IC50 in test [1] and in test [2] was under 100 nM each time.

With `COc1ccc(-c2nc3sc4c(O)c(Cl)ccc4c3c(=O)n2Cc2cc(C)no2)c(C2CC2)c1` [Example 39, 7-chloro-2-(2-cyclopropyl-4-methoxyphenyl)-8-hydroxy-3-((3-methylisoxazol-5-yl)methyl)benzo[4,5]thieno[2,3-d]pyrimidin-4(3H)-one], the IC50 in test [1] and in test [2] was under 100 nM each time.

In the case of `COc1ccc(-c2nc3sc4c(O[C@@H]5O[C@H](C(=O)O)[C@@H](O)[C@H](O)[C@H]5O)cccc4c3c(=O)n2Cc2cnco2)c(C2CC2)c1` [Example 17, (2S,3S,4S,5R,6S)-6-((2-(2-cyclopropyl-4-methoxyphenyl)-3-(oxazol-5-ylmethyl)-4-oxo-3,4-dihydrobenzo[4,5]thieno[2,3-d]pyrimidin-8-yl)oxy)-3,4,5-trihydroxytetrahydro-2H-pyran-2-carboxylic acid], the IC50 fell in the range of 1000 to 100000 nM in test [1] and 1000 to 10000 nM in test [2].

As to `O=c1c2c(nc(-c3cc(F)c(F)cc3C3CC3)n1Cc1cnco1)sc1c(O)c(Cl)ccc12` [Example 119], the IC50 in test [1] and in test [2] was under 100 nM in each case.

Turning to `O=c1c2c(nc(-c3ccc(F)cc3C3CC3)n1Cc1cnco1)sc1c(O)c(Cl)ccc12` [Example 42, 7-chloro-2-(2-cyclopropyl-4-fluorophenyl)-8-hydroxy-3-(oxazol-5-ylmethyl)benzo[4,5]thieno[2,3-d]pyrimidin-4(3H)-one], the IC50 in test [1] and in test [2] was under 100 nM in each case.

Regarding `COc1ccc(C2CC2)c(-c2nc3sc4c(O)c(Cl)ccc4c3c(=O)n2Cc2cnco2)c1` [Example 83], the IC50 in test [1] and in test [2] was under 100 nM throughout.

`COc1ccc(-c2nc3sc4c(O)c(Cl)ccc4c3c(=O)n2Cc2cnco2)c(Br)c1` [Example 122]: the IC50 in test [1] and in test [2] was under 100 nM throughout.

On to `COc1cc(-c2nc3sc4c(O)c(Cl)ccc4c3c(=O)n2Cc2cnco2)c(C2CC2)cc1Cl` [Example 120], for which the IC50 in test [1] and in test [2] was under 100 nM each time.

In the case of `O=c1c2c(nc(-c3cc(OC(F)(F)F)ccc3C3CC3)n1Cc1cnco1)sc1c(O)c(Cl)ccc12` [Example 143], the IC50 in test [1] and in test [2] was under 100 nM in each case.

With `O=c1c2c(nc(-c3cc(F)c(F)cc3C3CC3)n1Cc1cnc(C(F)(F)F)nc1)sc1c(O)c(Cl)ccc12` [Example 63, 7-chloro-2-(2-cyclopropyl-4,5-difluorophenyl)-8-hydroxy-3-((2-(trifluoromethyl)pyrimidin-5-yl)methyl)benzo[4,5]thieno[2,3-d]pyrimidin-4(3H)-one], the IC50 in test [1] and in test [2] was under 100 nM throughout.

For the compound `COc1ccc(-c2nc3sc4c(O)c(Cl)cc(Cl)c4c3c(=O)n2Cc2cnco2)c(C2CC2)c1` [Example 18, 5,7-dichloro-2-(2-cyclopropyl-4-methoxyphenyl)-8-hydroxy-3-(oxazol-5-ylmethyl)benzo[4,5]thieno[2,3-d]pyrimidin-4(3H)-one], the values for the IC50 in test [1] and in test [2] were 100 to 500 nM and 100 to 1000 nM, respectively.

As to `O=c1c2c(nc(-c3ccc(C(F)(F)F)cc3C3CC3)n1Cc1cnco1)sc1c(O)c(Cl)ccc12` [Example 135], the IC50 in test [1] and in test [2] was under 100 nM each time.

Regarding `COc1ccc(-c2nc3sc4c(OC)cccc4c3c(=O)n2Cc2cnco2)c(C2CC2)c1` [Example 8, 2-(2-cyclopropyl-4-methoxyphenyl)-8-methoxy-3-(oxazol-5-ylmethyl)benzo[4,5]thieno[2,3-d]pyrimidin-4(3H)-one], the figures for the IC50 in test [1] and in test [2] were 1000 to 100000 nM and over 10000 nM, respectively.

Turning to `COc1ccc(-c2nc3sc4c(ccc5[nH]c(=O)[nH]c54)c3c(=O)n2Cc2cnco2)c(C2CC2)c1` [Example 30, 8-(2-cyclopropyl-4-methoxyphenyl)-7-(oxazol-5-ylmethyl)-3,7-dihydro-1H-imidazo[4″,5″:3′,4′]benzo[1′,2′:4,5]thieno[2,3-d]pyrimidine-2,6-dione], the IC50 in test [1] was 1000 to 100000 nM; in test [2], over 10000 nM.

Regarding `O=c1c2c(nc(-c3ncc(C(F)(F)F)cc3C3CC3)n1Cc1cc(C(F)(F)F)no1)sc1c(O)c(Cl)ccc12` [Example 96], the IC50 in test [1] and in test [2] was under 100 nM each time.

In the case of `COc1ccc(-c2nc3sc4c(NC(C)=O)cccc4c3c(=O)n2Cc2cnco2)c(C2CC2)c1` [Example 4, N-(2-(2-cyclopropyl-4-methoxyphenyl)-3-(oxazol-5-ylmethyl)-4-oxo-3,4-dihydrobenzo[4,5]thieno[2,3-d]pyrimidin-8-yl)acetamide], the IC50 in test [1] is 1000 to 100000 nM; in test [2] it was over 10000 nM.

For the compound `COc1cc(C2CC2)c(-c2nc3sc4c(O)c(Cl)ccc4c3c(=O)n2Cc2cnco2)cc1Cl` [Example 105, 7-chloro-2-(5-chloro-2-cyclopropyl-4-methoxyphenyl)-8-hydroxy-3-(oxazol-5-ylmethyl)benzo[4,5]thieno[2,3-d]pyrimidin-4(3H)-one], the IC50 in test [1] and in test [2] was under 100 nM in each case.

In the case of `CCOc1ccc(-c2nc3sc4c(O)c(Cl)ccc4c3c(=O)n2Cc2cnco2)c(C2CC2)c1` [Example 72, 7-chloro-2-(2-cyclopropyl-4-ethoxyphenyl)-8-hydroxy-3-(oxazol-5-ylmethyl)benzo[4,5]thieno[2,3-d]pyrimidin-4(3H)-one], the IC50 in test [1] and in test [2] was under 100 nM throughout.

In the case of `COc1ccc(-c2nc3sc4c(O)c(Cl)ccc4c3c(=O)n2Cc2cncs2)c(C2CC2)c1` [Example 190], the IC50 in test [1] and in test [2] was under 100 nM each time.

For `O=c1c2c(nc(-c3cc(F)c(C(F)F)cc3C3CC3)n1Cc1cc(C(F)(F)F)no1)sc1c(O)c(Cl)ccc12` [Example 175], the IC50 in test [1] and in test [2] was under 100 nM in each case.

As for `COc1ccc(-c2nc3sc4c(NS(C)(=O)=O)cccc4c3c(=O)n2Cc2cnco2)c(C2CC2)c1` [Example 7, N-(2-(2-cyclopropyl-4-methoxyphenyl)-3-(oxazol-5-ylmethyl)-4-oxo-3,4-dihydrobenzo[4,5]thieno[2,3-d]pyrimidin-8-yl)methanesulfonamide], the IC50 in test [1] was 1000 to 100000 nM; in test [2], over 10000 nM.

`O=c1c2c(nc(-c3ccc(F)cc3C3CC3)n1Cc1ccno1)sc1c(O)c(Cl)ccc12` [Example 52, 7-chloro-2-(2-cyclopropyl-4-fluorophenyl)-8-hydroxy-3-(isoxazol-5-ylmethyl)benzo[4,5]thieno[2,3-d]pyrimidin-4(3H)-one]: the IC50 in test [1] and in test [2] was under 100 nM each time.

`COc1cc(C2CC2)c(-c2nc3sc4c(O)c(Cl)ccc4c3c(=O)n2Cc2cnco2)cc1C(F)(F)F` [Example 78]: the IC50 is under 100 nM in test [1] and 100 to 1000 nM in test [2].

For the compound `COc1ccc(-c2nc3sc4c(O)c(Cl)ccc4c3c(=O)n2Cc2cnco2)c(C(C)C)c1` [Example 125], the IC50 in test [1] and in test [2] was under 100 nM throughout.

For `O=c1c2c(nc(-c3c(F)cc(F)cc3C3CC3)n1Cc1cnco1)sc1c(O)c(Cl)ccc12` [Example 144], the IC50 in test [1] and in test [2] was under 100 nM in each case.

The values are drawn from US20250154163A1, “Pyrimidinone-Containing 17-Beta-Hydroxysteroid Dehydrogenase Type 13 Inhibitors” (ENANTA PHARMACEUTICALS, INC., priority 2023, published 2025).
